Measurements from ChEMBL document CHEMBL2203139, “Synthetic bicyclic iminosugar derivatives fused thiazolidin-4-one as new potential HIV-RT inhibitors” (Bioorg Med Chem Lett, 2012).

Target: Human immunodeficiency virus type 1 reverse transcriptase (Human immunodeficiency virus 1, UniProt Q72547)
Experiment: Inhibition of HIV1 reverse transcriptase incubated for 1 hr by colorimetric assay

Structure (SMILES) | IC50
O=C1CS[C@H]2[C@H](O)[C@H](O)[C@H](O)CN12 | 13 µM
O=C1CS[C@@H]2[C@H](O)[C@H](O)[C@H](O)CN12 | 19 µM
O=C1S[C@H]2[C@H](O)[C@H](O)[C@H](O)CN2C1=O | 4.22 µM
O=C1C[S+]([O-])[C@H]2[C@H](O)[C@H](O)[C@H](O)CN12 (some centres not stated) | 10.2 µM
O=C1C(O)S[C@H]2[C@H](O)[C@H](O)[C@H](O)CN12 (some centres not stated) | 1.74 µM
O=C1S[C@@H]2[C@H](O)[C@H](O)[C@H](O)CN2C1=O | 5.2 µM
O=C1C[S+]([O-])[C@@H]2[C@H](O)[C@H](O)[C@H](O)CN12 (some centres not stated) | 2.45 µM
